According to patent publication US10472341B2, “Bicyclic tetrahydrothiazepine derivatives useful for the treatment of neoplastic and/or infectious diseases” (APEIRON BIOLOGICS AG, priority 2015, dated 2019):
Structures can show the parent of a compound that is named as a salt.

How the values were obtained:
[1] = tested on: OT-II cells; experiment: OT-II transfer model, oral administration: antigen-specific T cell proliferation and CD69; type: in vivo, mouse; details: mice
Procedure: (§1) • Single cell suspension of splenocytes was prepared from the spleen by rinsing cells through a sterile 70 μm filter with PBS • Cells were collected by centrifugation in an 15 ml tube, the cell pellet was resuspended in 1 ml of Erylyse buffer and incubated at room temperature for 5 minutes, tubes were filled up with PBS and cells were washed twice • Cells were counted and resuspended in the desired buffer volume for MACS-enrichment or flow cytometric analysis Isolation of CD4 T Cells from OT-II Transgenic Mice • Splenocytes were resuspended in MACS buffer ([…] MACS-buffer/10^7 cells) • CD4 T cells were isolated using the CD4 T cell isolation kit (Miltenyi) with LS-columns following manufacturer's recommendations CFSE-Labeling of T Cells • Cells were resuspended in PBS with 0.1% BSA at 1×10^7 cells/ml and CFSE-solution was added to final concentration of 2.5 μM CFSE • Incubated for 10 min at 37° C., swung each 2 min • Same volume of FCS added and incubated for 5 min at room temperature • Cells were washed twice with RMPI-10% FCS medium • Cells were counted and resuspended in PBS or medium at desired concentration OT-II Transfer • Day 0: OT-II cells were transferred in PBS (3*10^6. Cells in 100 μl PBS) by retro-orbital injection • Day 1: WT mice got OVA vaccinated (subcut. flank, 10 μg LPS, 2 μg OVA per animal) • 2 & 4 h later compounds were administrated; for oral dosing compound was used as suspension (0.5% methylcellulose in water), for i.v. dosing compound was solubilized in DMSO and diluted with PBS • Day 2: compounds were administrated twice in the morning (with 2 h time interval) • Day 3: Mice were sacrificed & splenocytes were isolated • T cell proliferation & phenotype was determined by flow cytometry • Flow cytometry-Staining (all Abs purchased from eBioscience and used as recommended by the manufacturer): B220-eF450, CD4-PE, CD25PerCPCy5.5, CD69-PC7, TCRVa2-APC, CD8-AF700, CD3-eF780; CFSE; 7-AAD • Acquisition on Beckman-Coulter Gallios, Analysis using Kaluza Software OT-I Transfer to Mice with B16-F10-OVA Tumors • Day 0: 100000 B16-F10-OVA tumor cells were inoculated subcutaneously at the flank of WT-mice • Day 7: OT-I cells were transferred in PBS (3*10^6. […]

[2] = tested on: CD8-positive immune cells & M21 melanoma cells; experiment: CD8-positive immune cells alone or in co-culture with M21 melanoma cells: IFN-gamma, IL-2, granzyme; type: cell-based, human
Procedure: (§2) Isolated PBMCs, NK cells or CD8 positive cells were plated in Xvivo medium at 1.5*10^5 cells per in 96 well culture plates in the presence of 0.3*10^4 tumor cells where indicated. Cytokine secretion was determined by ELISA, immune cell activation (using Beckman-Coulter Abs CD25-PC5, CD69-PC7), cell viability and numbers by flow cytometry (Beckman-Coulter FC500 or Gallios) using 7-AAD exclusion as criterion for living cells. CD8-positive immune cells were isolated from PBMCs and were incubated with and without compound example 67, either alone or in co-culture with M21 melanoma cells.

[3] = tested on: M21 melanoma cells; experiment: M21 viability (number of living cells) with or without CD8 cells; type: cell-based, human
Procedure: as §2

[4] = tested on: OT-II cells; experiment: OT-II transfer model, intravenous administration; type: in vivo, mouse; details: LPS & OVA
Procedure: as §1

[5] = 0.03 μM, CD8 only (no tumor cells)
[6] = 0.10 μM, CD8 only (no tumor cells)
[7] = 0.30 μM, CD8 only (no tumor cells)
[8] = 1 μM, CD8 only (no tumor cells)
[9] = 3 μM, CD8 only (no tumor cells)
[10] = 10 μM, CD8 only (no tumor cells)

N[C@H]1CS(=O)(=O)c2cc(F)c(C(=O)NC3CC3(F)F)cc2N(Cc2ccc(Cl)cc2)C1=O (stereo partly drawn) [Example 1, (3R)-3-amino-5-[(4-chlorophenyl)methyl]-N-(2,2-difluorocyclopropyl)-8-fluoro-1,1,4-trioxo-2,3,4,5-tetrahydro-1λ^6,5-benzothiazepine-7-carboxamide hydrochloride]
Proliferated OT-II cells [% gated] average ([1]; LPS & OVA vaccination, 10 mg/kg dosed orally, splenocytes day 3): 29.03 % gated
CD69 on transferred OT-II cells ([1]; LPS & OVA, 10 mg/kg orally): CD69 was not further upregulated
Proliferation of OT-II cells ([1]; LPS & OVA, 10 mg/kg orally, versus no compound): highly significantly (p<0.00001) enhanced

CCCCNC(=O)c1ccc2c(c1)N(Cc1ccc(OC(F)(F)F)cc1)C(=O)[C@@H](N)CS2(=O)=O.Cl [Example 67, (3R)-3-amino-N-butyl-1,1,4-trioxo-5-{[4-(trifluoromethoxy)phenyl]methyl}-2,3,4,5-tetrahydro-1λ^6,5-benzothiazepine-7-carboxamide hydrochloride]
Granzyme [ng/ml] avg ([2]; 0.03 μM, CD8 cells & M21): 0.10 ng/mL
IFN-gamma [ng/ml] avg ([2]; 0.03 μM, CD8 cells & M21): 0.06 ng/mL
IL-2 [ng/ml] avg ([2]; 0.03 μM, CD8 cells & M21): 1.32 ng/mL
Granzyme [ng/ml] avg [2, 5]: 0.01 ng/mL
IFN-gamma [ng/ml] avg [2, 5]: Below
IL-2 [ng/ml] avg [2, 5]: Below
Granzyme [ng/ml] avg ([2]; 0.10 μM, CD8 cells & M21): 0.12 ng/mL
IFN-gamma [ng/ml] avg ([2]; 0.10 μM, CD8 cells & M21): 0.15 ng/mL
IL-2 [ng/ml] avg ([2]; 0.10 μM, CD8 cells & M21): 2.13 ng/mL
Granzyme [ng/ml] avg [2, 6]: 0.01 ng/mL
IFN-gamma [ng/ml] avg [2, 6]: Below
IL-2 [ng/ml] avg [2, 6]: Below
Granzyme [ng/ml] avg ([2]; 0.30 μM, CD8 cells & M21): 0.18 ng/mL
IFN-gamma [ng/ml] avg ([2]; 0.30 μM, CD8 cells & M21): 0.20 ng/mL
IL-2 [ng/ml] avg ([2]; 0.30 μM, CD8 cells & M21): 2.75 ng/mL
Granzyme [ng/ml] avg [2, 7]: 0.01 ng/mL
IFN-gamma [ng/ml] avg [2, 7]: Below
IL-2 [ng/ml] avg [2, 7]: Below
Granzyme [ng/ml] avg ([2]; 1 μM, CD8 cells & M21): 0.34 ng/mL
IFN-gamma [ng/ml] avg ([2]; 1 μM, CD8 cells & M21): 0.40 ng/mL
IL-2 [ng/ml] avg ([2]; 1 μM, CD8 cells & M21): 3.38 ng/mL
Granzyme [ng/ml] avg [2, 8]: 0.02 ng/mL
IFN-gamma [ng/ml] avg [2, 8]: Below
IL-2 [ng/ml] avg [2, 8]: Below
Granzyme [ng/ml] avg ([2]; 3 μM, CD8 cells & M21): 0.43 ng/mL
IFN-gamma [ng/ml] avg ([2]; 3 μM, CD8 cells & M21): 0.54 ng/mL
IL-2 [ng/ml] avg ([2]; 3 μM, CD8 cells & M21): 3.44 ng/mL
Granzyme [ng/ml] avg [2, 9]: 0.01 ng/mL
IFN-gamma [ng/ml] avg [2, 9]: Below
IL-2 [ng/ml] avg [2, 9]: Below
Granzyme [ng/ml] avg ([2]; 10 μM, CD8 cells & M21): 0.37 ng/mL
IFN-gamma [ng/ml] avg ([2]; 10 μM, CD8 cells & M21): 0.68 ng/mL
IL-2 [ng/ml] avg ([2]; 10 μM, CD8 cells & M21): 3.26 ng/mL
Granzyme [ng/ml] avg [2, 10]: 0.02 ng/mL
IFN-gamma [ng/ml] avg [2, 10]: Below
IL-2 [ng/ml] avg [2, 10]: Below
tumor-cell contact mediated release of granzyme ([2]; CD8-positive immune cells in co-culture with M21): enhanced
production of IL-2 and IFN-gamma ([2]; CD8-positive immune cells in co-culture with M21 melanoma cells): enhanced production of both cytokines specifically upon tumor cell contact
enhancement of IL-2 and IFN-gamma production ([2]; CD8-positive immune cells in the absence of tumor cells): such effect was not detected in the absence of tumor cells
M21 Viability [Number of Living Cells] average ([3]; 0.03 μM, CD8 cells & M21): 13077.00 Number of Living Cells
M21 Viability [Number of Living Cells] average ([3]; 0.1 μM, CD8 cells & M21): 11586.67 Number of Living Cells
M21 Viability [Number of Living Cells] average ([3]; 0.3 μM, CD8 cells & M21): 9525.67 Number of Living Cells
M21 Viability [Number of Living Cells] average ([3]; 1 μM, CD8 cells & M21): 3916.67 Number of Living Cells
M21 Viability [Number of Living Cells] average ([3]; 3 μM, CD8 cells & M21): 3604.00 Number of Living Cells
M21 Viability [Number of Living Cells] average ([3]; 10 μM, CD8 cells & M21): 3448.67 Number of Living Cells
M21 Viability [Number of Living Cells] average ([3]; 10 μM, M21 only (no CD8 cells)): 18139 Number of Living Cells
viable tumor cells ([3]; immune cell cocultures with M21 tumor cells): strong reduction in viable tumor cells

Cl.N[C@H]1CS(=O)(=O)c2cc(F)c(C(=O)NCCCC(F)(F)F)cc2N(Cc2ccc(Cl)cc2)C1=O [Example 70, (3R)-3-amino-5-[(4-chlorophenyl)methyl]-8-fluoro-1,1,4-trioxo-N-(4,4,4-trifluoro-butyl)-2,3,4,5-tetrahydro-1λ^6,5-benzothiazepine-7-carboxamide hydrochloride]
Proliferated OT-II cells, average ([4]; 1 mg/kg): 18.70 % gated
CD69+ cells, B cells of recipient animal ([4]; 10 mg/kg): 8.62 % gated
CD69+ cells, CD8 T cells of recipient animal ([4]; 10 mg/kg): 7.08 % gated
CD69+ cells, WT CD4 T cells of recipient animal ([4]; 10 mg/kg): 12.26 % gated
CD69+ cells, transferred OT-II cells ([4]; 10 mg/kg): 59.47 % gated
